This passage reports inhibition results from patent publication US8686150B2 (Sanofi, priority 2011, dated 2014).

Usually inhibition stands for the drop in the measured response relative to a control, in per cent.

For this test, the target named is T1, human full-length recombinant PKC βII (Homo sapiens, UniProt P05771).
T1 construct: Active human full-length recombinant PKC βII; purchased Invitrogen GmbH, Darmstadt, Germany
T1 sequence (P05771 1-673 isoform P05771-2): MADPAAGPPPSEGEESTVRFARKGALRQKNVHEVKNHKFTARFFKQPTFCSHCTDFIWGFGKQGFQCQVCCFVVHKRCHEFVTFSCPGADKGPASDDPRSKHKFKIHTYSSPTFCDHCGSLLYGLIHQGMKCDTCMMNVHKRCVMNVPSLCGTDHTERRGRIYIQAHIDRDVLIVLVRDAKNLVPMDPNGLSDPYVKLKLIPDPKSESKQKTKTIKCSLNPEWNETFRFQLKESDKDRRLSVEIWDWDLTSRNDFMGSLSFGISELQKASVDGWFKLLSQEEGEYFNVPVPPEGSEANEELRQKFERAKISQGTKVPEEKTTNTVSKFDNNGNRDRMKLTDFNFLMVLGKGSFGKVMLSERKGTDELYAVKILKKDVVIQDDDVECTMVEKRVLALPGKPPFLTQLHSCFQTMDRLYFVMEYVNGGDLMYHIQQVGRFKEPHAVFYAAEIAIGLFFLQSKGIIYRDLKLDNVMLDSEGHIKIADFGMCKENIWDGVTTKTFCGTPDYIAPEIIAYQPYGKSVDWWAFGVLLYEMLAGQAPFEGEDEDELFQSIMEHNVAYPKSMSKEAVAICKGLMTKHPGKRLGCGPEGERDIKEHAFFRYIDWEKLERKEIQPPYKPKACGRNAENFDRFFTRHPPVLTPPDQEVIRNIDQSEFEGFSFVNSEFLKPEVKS
The test is described as follows: Determination of PKC βII inhibition (Caliper mobility-shift kinase assay, Fluorescein-RFARKGSLRQKNV peptide substrate). The format is biochemical. The note with it: example compounds at a final concentration of 1.14 μM (±0.15 μM). In a few lines:
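Full-length PKC βII (30 ng/ml in pre-dilution) with PS/DAG/Ca2+ activators, pH 7.4; fluorescein peptide and ATP at 3 μM and 120 μM before mixing. Reaction ran 60 min at 32 °C, was EDTA-stopped, and was read by mobility shift. % inhibition came from product/(substrate+product) peak heights, tested at 1.14 μM final.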
As to `Cc1n[nH]c2nc(-c3ccc(O)cc3)cc(C(=O)NC3CCNC3)c12` (stereo not drawn) [Example 106, 6-(4-Hydroxy-phenyl)-3-methyl-1H-pyrazolo[3,4-b]pyridine-4-carboxylic acid pyrrolidin-3-ylamide], the inhibition at 1.14 µM is 77%. With `CCOC1CNCC1NC(=O)c1cc(-c2ccc(O)cc2)nc2[nH]nc(C)c12` (stereo not drawn) [Example 44, 6-(4-Hydroxy-phenyl)-3-methyl-1H-pyrazolo[3,4-b]pyridine-4-carboxylic acid (4-ethoxy-pyrrolidin-3-yl)-amide], the inhibition at 1.14 µM was found to be 83%.

Take `COC(=O)CC1CNCCN1C(=O)c1cc(-c2ccc(O)c(F)c2)nc2[nH]nc(C)c12` (stereo not drawn) [Example 353, {1-[6-(3-Fluoro-4-hydroxy-phenyl)-3-methyl-1H-pyrazolo[3,4-b]pyridine-4-carbonyl]-piperazin-2-yl}-acetic acid methyl ester]: the inhibition at 1.14 µM is 70%. On to `Cc1n[nH]c2nc(-c3ccc(O)cc3F)cc(C(=O)N3CCC(C)(N)CC3)c12` [Example 418, (4-Amino-4-methyl-piperidin-1-yl)-[6-(2-fluoro-4-hydroxy-phenyl)-3-methyl-1H-pyrazolo[3,4-b]pyridin-4-yl]-methanone], for which the inhibition at 1.14 µM was determined as 30%.

For `Cc1n[nH]c2nc(-c3ccc(O)cc3F)cc(C(=O)N3CC4(CCCC4)NCC3(C)C)c12` [Example 451, (8,8-Dimethyl-6,9-diaza-spiro[4.5]dec-9-yl)-[6-(2-fluoro-4-hydroxy-phenyl)-3-methyl-1H-pyrazolo[3,4-b]pyridin-4-yl]-methanone], the inhibition at 1.14 µM is 104%. Then `Cc1n[nH]c2nc(-c3ccc(O)c(F)c3)cc(C(=O)N(C)C3CCN(C)CC3)c12` [Example 331, 6-(3-Fluoro-4-hydroxy-phenyl)-3-methyl-1H-pyrazolo[3,4-b]pyridine-4-carboxylic acid methyl-(1-methyl-piperidin-4-yl)-amide], with 41%; and `CCN1CCCN(C(=O)c2cc(-c3ccc(O)cc3)nc3[nH]nc(C(F)(F)F)c23)CC1` [Example 414, (4-Ethyl-[1,4]diazepan-1-yl)-[6-(4-hydroxy-phenyl)-3-trifluoromethyl-1H-pyrazolo[3,4-b]pyridin-4-yl]-methanone], with 30%. For `Cc1n[nH]c2nc(-c3ccc(O)cc3)cc(C(=O)NC3CC4(CC(N)C4)C3)c12` (stereo not drawn) [Example 191, 6-(4-Hydroxy-phenyl)-3-methyl-1H-pyrazolo[3,4-b]pyridine-4-carboxylic acid (6-amino-spiro[3.3]hept-2-yl)-amide], the inhibition at 1.14 µM was determined as 78%. `Cc1cc(O)ccc1-c1cc(C(=O)N2CCNCC2c2ccccc2Cl)c2c(C)n[nH]c2n1` (stereo not drawn) [Example 153, [2-(2-Chloro-phenyl)-piperazin-1-yl]-[6-(4-hydroxy-2-methyl-phenyl)-3-methyl-1H-pyrazolo[3,4-b]pyridin-4-yl]-methanone]: the inhibition at 1.14 µM is 89%.

Regarding `CN[C@H]1CN(C(=O)c2cc(-c3ccc(O)cc3)nc3[nH]nc(C)c23)CC[C@H]1C` (racemic) [Example 229, [6-(4-Hydroxy-phenyl)-3-methyl-1H-pyrazolo[3,4-b]pyridin-4-yl]-(cis-4-methyl-3-methylamino-piperidin-1-yl)-methanone], the inhibition at 1.14 µM came to 79%. As for `CCc1n[nH]c2nc(-c3ccc(O)cc3)cc(C(=O)N3CC[C@@H](N(C)C)C3)c12` [Example 176, ((R)-3-Dimethylamino-pyrrolidin-1-yl)-[3-ethyl-6-(4-hydroxy-phenyl)-1H-pyrazolo[3,4-b]pyridin-4-yl]-methanone], the inhibition at 1.14 µM stood at 40%. The result for `Cc1n[nH]c2nc(-c3ccc(O)cc3)cc(C(=O)N3CCNCC3c3ccccc3Cl)c12` (stereo not drawn) [Example 102, [2-(2-Chloro-phenyl)-piperazin-1-yl]-[6-(4-hydroxy-phenyl)-3-methyl-1H-pyrazolo[3,4-b]pyridin-4-yl]-methanone] reads 93%.
